Experimental data taken from the supplement of paper PMC11451515.

Test system: P12-Ichikawa
Test: cell viability relative to DMSO control; higher = less cytotoxic
Conditions: 48 h
How it was run: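 Viability is a per-plate percentage relative to DMSO wells, with cell-free wells as background. CellTiter-Glo One luminescence was read after 48 h at 37°C on 1536-well plates (5 μl) of NOMO1 or SEM (500 cells/well) or P12-Ichikawa (1000 cells/well) leukemia cells. The cells had been adapted for at least four passages in each medium and pin-dosed with library compounds in DMSO from 47 μM to 0.79 nM in 11 threefold steps.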

[1] = HPLM + 10% dialyzed FBS, 0.000781 µM
[2] = HPLM + 10% dialyzed FBS, 0.00234 µM
[3] = HPLM + 10% dialyzed FBS, 0.00702 µM
[4] = HPLM + 10% dialyzed FBS, 0.0211 µM
[5] = HPLM + 10% dialyzed FBS, 0.0632 µM
[6] = HPLM + 10% dialyzed FBS, 0.19 µM
[7] = HPLM + 10% dialyzed FBS, 0.569 µM
[8] = HPLM + 10% dialyzed FBS, 1.71 µM
[9] = HPLM + 10% dialyzed FBS, 5.12 µM
[10] = HPLM + 10% dialyzed FBS, 15.4 µM
[11] = HPLM + 10% dialyzed FBS, 46.1 µM
[12] = RPMI 5 mM glucose + 10% FBS, 0.000781 µM
[13] = RPMI 5 mM glucose + 10% FBS, 0.00234 µM
[14] = RPMI 5 mM glucose + 10% FBS, 0.00702 µM
[15] = RPMI 5 mM glucose + 10% FBS, 0.0211 µM
[16] = RPMI 5 mM glucose + 10% FBS, 0.0632 µM
[17] = RPMI 5 mM glucose + 10% FBS, 0.19 µM
[18] = RPMI 5 mM glucose + 10% FBS, 0.569 µM
[19] = RPMI 5 mM glucose + 10% FBS, 1.71 µM
[20] = RPMI 5 mM glucose + 10% FBS, 5.12 µM
[21] = RPMI 5 mM glucose + 10% FBS, 15.4 µM
[22] = RPMI 5 mM glucose + 10% FBS, 46.1 µM
[23] = RPMI 5 mM glucose + 10% dialyzed FBS, 0.000781 µM
[24] = RPMI 5 mM glucose + 10% dialyzed FBS, 0.00234 µM
[25] = RPMI 5 mM glucose + 10% dialyzed FBS, 0.00702 µM
[26] = RPMI 5 mM glucose + 10% dialyzed FBS, 0.0211 µM
[27] = RPMI 5 mM glucose + 10% dialyzed FBS, 0.0632 µM
[28] = RPMI 5 mM glucose + 10% dialyzed FBS, 0.19 µM
[29] = RPMI 5 mM glucose + 10% dialyzed FBS, 0.569 µM
[30] = RPMI 5 mM glucose + 10% dialyzed FBS, 1.71 µM
[31] = RPMI 5 mM glucose + 10% dialyzed FBS, 5.12 µM
[32] = RPMI 5 mM glucose + 10% dialyzed FBS, 15.4 µM
[33] = RPMI 5 mM glucose + 10% dialyzed FBS, 46.1 µM

CC(C)C1=C(O)C=C(O)C(=C1)C/2=N/NC(=O)N2C3=CC4=C(C=C3)[N](C)C=C4
cell viability [1]: 119%
cell viability [2]: 118%
cell viability [3]: 118%
cell viability [4]: 117%
cell viability [5]: 116%
cell viability [6]: 78.1%
cell viability [7]: 51.7%
cell viability [8]: 54.2%
cell viability [9]: 49%
cell viability [10]: 47.4%
cell viability [11]: 45.3%
cell viability [12]: 119%
cell viability [13]: 123%
cell viability [14]: 125%
cell viability [15]: 112%
cell viability [16]: 110%
cell viability [17]: 51%
cell viability [18]: 41%
cell viability [19]: 41.3%
cell viability [20]: 41.8%
cell viability [21]: 41.6%
cell viability [22]: 38.6%
cell viability [23]: 112%
cell viability [24]: 123%
cell viability [25]: 127%
cell viability [26]: 122%
cell viability [27]: 116%
cell viability [28]: 48.7%
cell viability [29]: 45.6%
cell viability [30]: 42.6%
cell viability [31]: 44.4%
cell viability [32]: 41.5%
cell viability [33]: 39%

CCC(C)(Oc1ccc(C2(c3ccc(OC(C)(CC)C(=O)O)cc3)CCCCC2)cc1)C(=O)O (stereo unspecified)
cell viability [1]: 109%
cell viability [2]: 106%
cell viability [3]: 103%
cell viability [4]: 110%
cell viability [5]: 99.2%
cell viability [6]: 103%
cell viability [7]: 103%
cell viability [8]: 106%
cell viability [9]: 107%
cell viability [10]: 94%
cell viability [11]: 98.4%
cell viability [12]: 90.9%
cell viability [13]: 95.6%
cell viability [14]: 97%
cell viability [15]: 93.2%
cell viability [16]: 97.8%
cell viability [17]: 97.2%
cell viability [18]: 97.6%
cell viability [19]: 101%
cell viability [20]: 100%
cell viability [21]: 92.1%
cell viability [22]: 94.1%
cell viability [23]: 87.5%
cell viability [24]: 95.5%
cell viability [25]: 89%
cell viability [26]: 86.6%
cell viability [27]: 96.8%
cell viability [28]: 92%
cell viability [29]: 82.1%
cell viability [30]: 91%
cell viability [31]: 89.1%
cell viability [32]: 86.7%
cell viability [33]: 85.3%

CN[C@@H]1[C@H](O)[C@H](NC)[C@H]2O[C@@]3(O)C(=O)C[C@@H](C)O[C@H]3O[C@@H]2[C@H]1O
cell viability [1]: 118%
cell viability [2]: 117%
cell viability [3]: 124%
cell viability [4]: 115%
cell viability [5]: 118%
cell viability [6]: 116%
cell viability [7]: 114%
cell viability [8]: 111%
cell viability [9]: 114%
cell viability [10]: 101%
cell viability [11]: 98.4%
cell viability [12]: 109%
cell viability [13]: 117%
cell viability [14]: 126%
cell viability [15]: 120%
cell viability [16]: 117%
cell viability [17]: 113%
cell viability [18]: 105%
cell viability [19]: 106%
cell viability [20]: 106%
cell viability [21]: 105%
cell viability [22]: 97.5%
cell viability [23]: 122%
cell viability [24]: 121%
cell viability [25]: 115%
cell viability [26]: 116%
cell viability [27]: 106%
cell viability [28]: 116%
cell viability [29]: 117%
cell viability [30]: 106%
cell viability [31]: 114%
cell viability [32]: 107%
cell viability [33]: 101%

COc1ccc(-c2ccc3c(N4CCOC[C@@H]4C)nc(N4CCOC[C@@H]4C)nc3n2)cc1CO
cell viability [1]: 108%
cell viability [2]: 82.1%
cell viability [3]: 97%
cell viability [4]: 82.8%
cell viability [5]: 83.9%
cell viability [6]: 77.7%
cell viability [7]: 75.2%
cell viability [8]: 74.7%
cell viability [9]: 64.3%
cell viability [10]: 37.6%
cell viability [11]: 6.75%
cell viability [12]: 93.9%
cell viability [13]: 58.7%
cell viability [14]: 80.3%
cell viability [15]: 77.5%
cell viability [16]: 66.2%
cell viability [17]: 59.7%
cell viability [18]: 60.5%
cell viability [19]: 58.9%
cell viability [20]: 54.3%
cell viability [21]: 42.4%
cell viability [22]: 18.6%
cell viability [23]: 103%
cell viability [24]: 65.6%
cell viability [25]: 86.6%
cell viability [26]: 78.7%
cell viability [27]: 76.1%
cell viability [28]: 70.8%
cell viability [29]: 66.5%
cell viability [30]: 58.3%
cell viability [31]: 47.2%
cell viability [32]: 39%
cell viability [33]: 10.3%

C[C@]1(c2nc3c(C(N)=O)cccc3[nH]2)CCCN1
cell viability [1]: 78.7%
cell viability [2]: 83.9%
cell viability [3]: 79.3%
cell viability [4]: 88.8%
cell viability [5]: 82.2%
cell viability [6]: 87.2%
cell viability [7]: 88.4%
cell viability [8]: 83.2%
cell viability [9]: 81.3%
cell viability [10]: 89.5%
cell viability [11]: 72.4%
cell viability [12]: 70.9%
cell viability [13]: 78.2%
cell viability [14]: 74.9%
cell viability [15]: 82.6%
cell viability [16]: 82.9%
cell viability [17]: 72.9%
cell viability [18]: 77.7%
cell viability [19]: 72.4%
cell viability [20]: 83.3%
cell viability [21]: 80.4%
cell viability [22]: 5.38%
cell viability [23]: 78.1%
cell viability [24]: 74.3%
cell viability [25]: 74.3%
cell viability [26]: 81.4%
cell viability [27]: 83.5%
cell viability [28]: 76.9%
cell viability [29]: 79%
cell viability [30]: 81.6%
cell viability [31]: 72.8%
cell viability [32]: 82.1%
cell viability [33]: 2.96%

CCn1c(-c2nonc2N)nc2cnc(Oc3cccc(NC(=O)c4ccc(OCCN5CCOCC5)cc4)c3)cc21
cell viability [1]: 110%
cell viability [2]: 107%
cell viability [3]: 111%
cell viability [4]: 111%
cell viability [5]: 112%
cell viability [6]: 109%
cell viability [7]: 112%
cell viability [8]: 116%
cell viability [9]: 94.9%
cell viability [10]: 77%
cell viability [11]: 70.1%
cell viability [12]: 106%
cell viability [13]: 122%
cell viability [14]: 107%
cell viability [15]: 115%
cell viability [16]: 107%
cell viability [17]: 113%
cell viability [18]: 98.5%
cell viability [19]: 102%
cell viability [20]: 89.5%
cell viability [21]: 66.3%
cell viability [22]: 55.4%
cell viability [23]: 104%
cell viability [24]: 116%
cell viability [25]: 127%
cell viability [26]: 117%
cell viability [27]: 115%
cell viability [28]: 124%
cell viability [29]: 117%
cell viability [30]: 102%
cell viability [31]: 102%
cell viability [32]: 74.9%
cell viability [33]: 69.5%

O=C1c2c(O)ccc(O)c2C(=O)c2c(NCCNCCO)ccc(NCCNCCO)c21
cell viability [1]: 101%
cell viability [2]: 105%
cell viability [3]: 108%
cell viability [4]: 110%
cell viability [5]: 104%
cell viability [6]: 99.7%
cell viability [7]: 6.68%
cell viability [8]: 36.9%
cell viability [9]: 8.95%
cell viability [10]: 7%
cell viability [11]: 5.91%
cell viability [12]: 96%
cell viability [13]: 101%
cell viability [14]: 96.7%
cell viability [15]: 124%
cell viability [16]: 107%
cell viability [17]: 94.3%
cell viability [18]: 4.89%
cell viability [19]: 32.4%
cell viability [20]: 5.93%
cell viability [21]: 5.48%
cell viability [22]: 5.03%
cell viability [23]: 97.5%
cell viability [24]: 96%
cell viability [25]: 98%
cell viability [26]: 106%
cell viability [27]: 106%
cell viability [28]: 102%
cell viability [29]: 8.07%
cell viability [30]: 45.4%
cell viability [31]: 9.1%
cell viability [32]: 7.62%
cell viability [33]: 9.05%
